For this assay, the system named is human hepatoma Huh-7 cell line harboring a HCV replicon. The assay can be described thus: HCV replicon assay (inhibition of viral replication, luciferase readout). The settings on record: Hepatitis C virus, 72 h, Huh-7 HCV replicon cells, 3 days incubation. Type of assay: cell-based. The procedure: The anti-HCV activity of the compounds of this invention was tested in a human hepatoma Huh-7 cell line harboring a HCV replicon. The assay comprised the following steps:
Step 1: Compound Preparation and Serial Dilution.
Serial dilution was performed in 100% DMSO in a 384-well plate. A solution containing a compound at 225-fold concentration of the starting final serial dilution concentration was prepared in 100% DMSO and 15 μL added to the pre-specified wells in column 3 or 13 of a polypropylene 384-well plate. The rest of the 384-well plate was filled with 10 μL 100% DMSO except for columns 23 and 24, where 10 μL of 500 μM a HCV protease inhibitor (ITMN-191) in 100% DMSO was added. The HCV protease inhibitor was used a control of 100% inhibition of HCV replication. The plate was then placed on a Biomek FX Workstation to start the serial dilution. The serial dilution was performed for ten cycles of 3-fold dilution from column 3 to 12 or from column 13 to 22.
Step 2: Cell Culture Plate Preparation and Compound Addition
To each well of a black polypropylene 384-well plate, 90 μL of cell media containing 1600 suspended Huh-7 HCV replicon cells was added with a Biotek uFlow Workstation. A volume of 0.4 μL of the compound solution was transferred from the serial dilution plate to the cell culture plate on a Biomek FX Workstation. The DMSO concentration in the final assay condition was 0.44%. The plates were incubated for 3 days at 37° C. with 5% CO2 and 85% humidity.
Step 3: Detection of Cytotoxicity and Inhibition of Viral Replication
a) Assessment of cytotoxicity: The media in the 384-well cell culture plate was aspirated with a Biotek EL405 plate-washer. A volume of 50 μL of a solution containing 400 nM Calcein AM in 100% PBS was added to each well of the plate with a Biotek uFlow Workstation. The plate was incubated for 30 minutes at room temperature before the fluorescence signal ([…]) was measured with a Perkin Elmer Envision Plate Reader.
b) Assessment of inhibition of viral replication: The calcein-PBS solution in the 384-well cell culture plate was aspirated with a Biotek EL405 plate-washer. A volume of 20 μL of Dual-Glo luciferase buffer (Promega, Dual-Glo Luciferase Assay Reagent, cat. #E298B) was added to each well of the plate with a Biotek uFlow Workstation. The plate was incubated for 10 minutes at room temperature. A volume of 20 μL of a solution containing 1:100 mixture of Dual-Glo Stop & Glo substrate (Promega, Dual-Glo Luciferase Assay Reagent, cat. #E313B) and Dual-Glo Stop & Glo buffer (Promega, Dual-Glo Luciferase Assay Reagent, cat. #E314B) was then added to each well of the plate with a Biotek uFlow Workstation. The plate was incubated at room temperature for 10 minutes before the luminescence signal was measured with a Perkin Elmer Envision Plate Reader.
The percent cytotoxicity was determined by calcein AM conversion to fluorescent product. The average fluorescent signal from the DMSO control wells was defined as 100% nontoxic. The individual fluorescent signal from testing compound treated well was divided by the average signal from DMSO control wells and then multiplied by 100% to get the percent viability. The percent anti-HCV replication activity was determined by the luminescence signal from the testing well compared to DMSO control wells. The background signal was determined by the average luminescence signal from the HCV protease inhibitor treated wells and was subtracted from the signal from the testing wells as well as the DMSO control wells. Following 3-fold serial dilutions, the EC50 and CC50 values were calculated by fitting % inhibition at each concentration to the following equation: % inhibition=100%/[EC50/[I])^b+1]
Where b is Hill's coefficient. See, for reference, Hill, A. V., The Possible Effects of the Aggregation of the Molecules of Hæmoglobin on its Dissociation Curves, J. Physiol. 40: iv-vii. (1910). […]
For the molecule `CC(C)(C)C#Cc1cc(N(C(=O)[C@H]2CC[C@H](C)CC2)[C@H]2CC[C@H](Oc3ccc(C(F)(F)F)cn3)CC2)c(C(=O)O)s1` [Compound 10, 5-(3,3-Dimethyl-but-1-ynyl)-3-{(trans-4-methyl-cyclohexanecarbonyl)-[trans-4-(5-trifluoromethyl-pyridin-2-yloxy)-cyclohexyl]-amino}-thiophene-2-carboxylic acid], testing at 2 µM gave an inhibition of 56.2%. The value for `Cc1ccc(O[C@H]2CC[C@H](N(c3cc(C#CC(C)(C)C)sc3C(=O)O)C(=O)[C@H]3CC[C@H](C)CC3)CC2)nc1` [Compound 11, 5-(3,3-Dimethyl-but-1-ynyl)-3-{(trans-4-methyl-cyclohexanecarbonyl)-[trans-4-(5-methyl-pyridin-2-yloxy)-cyclohexyl]-amino}-thiophene-2-carboxylic acid] was 99.9%. `Cc1cccnc1O[C@H]1CC[C@H](N(c2cc(C#CC(C)(C)C)sc2C(=O)O)C(=O)[C@H]2CC[C@H](C)CC2)CC1` [Compound 12, 5-(3,3-Dimethyl-but-1-ynyl)-3-{(trans-4-methyl-cyclohexanecarbonyl)-[trans-4-(3-methyl-pyridin-2-yloxy)-cyclohexyl]-amino}-thiophene-2-carboxylic acid]: at 2 µM the inhibition was 99.7%. In the case of `CC(C)(C)C#Cc1cc(N(C(=O)[C@H]2CC[C@H](C)CC2)[C@H]2CC[C@H](Oc3cccc(C#N)n3)CC2)c(C(=O)O)s1` [Compound 13, 3-[[trans-4-(6-Cyano-pyridin-2-yloxy)-cyclohexyl]-(trans-4-methyl-cyclohexanecarbonyl)-amino]-5-(3,3-dimethyl-but-1-ynyl)-thiophene-2-carboxylic acid], the inhibition at 2 µM was 99.3%.

Turning to `CC(C)(C)C#Cc1cc(N(C(=O)[C@H]2CC[C@H](C)CC2)[C@H]2CC[C@H](Oc3ccc(=O)[nH]n3)CC2)c(C(=O)O)s1` [Compound 14, 5-(3,3-Dimethyl-but-1-ynyl)-3-{(trans-4-methyl-cyclohexanecarbonyl)-[trans-4-(6-oxo-1,6-dihydropyridazin-3-yloxy)-cyclohexyl]-amino}-thiophene-2-carboxylic acid], the inhibition at 2 µM was 100%.

Molecule `CC(C)(C)C#Cc1cc(N(C(=O)[C@H]2CC[C@H](C)CC2)[C@H]2CC[C@H](Oc3nccs3)CC2)c(C(=O)O)s1` [Compound 15, 5-(3,3-Dimethyl-but-1-ynyl)-3-{(trans-4-methyl-cyclohexanecarbonyl)-[trans-4-(thiazol-2-yloxy)-cyclohexyl]-amino}-thiophene-2-carboxylic acid] displayed an inhibition at 2 µM of 99.6%.

As for `CC(C)(C)C#Cc1cc(N(C(=O)[C@H]2CC[C@H](C)CC2)[C@H]2CC[C@H](Oc3ncccc3C(F)(F)F)CC2)c(C(=O)O)s1` [Compound 16, 5-(3,3-Dimethyl-but-1-ynyl)-3-{(trans-4-methyl-cyclohexanecarbonyl)-[trans-4-(3-trifluoromethyl-pyridin-2-yloxy)-cyclohexyl]-amino}-thiophene-2-carboxylic acid], the inhibition at 2 µM was determined as 75.1%. The molecule `CC(C)(C)C#Cc1cc(N(C(=O)[C@H]2CC[C@H](C)CC2)[C@H]2CC[C@H](Oc3cccc(C(F)(F)F)n3)CC2)c(C(=O)O)s1` [Compound 17, 5-(3,3-Dimethyl-but-1-ynyl)-3-{(trans-4-methyl-cyclohexanecarbonyl)-[trans-4-(6-trifluoromethyl-pyridin-2-yloxy)-cyclohexyl]-amino}-thiophene-2-carboxylic acid] had an inhibition at 2 µM of 67.6%. Molecule `CC(C)(C)C#Cc1cc(N(C(=O)[C@H]2CC[C@H](C)CC2)[C@H]2C[C@@H](Oc3cccnc3)C2)c(C(=O)O)s1` [Compound 20, 5-(3,3-Dimethyl-but-1-ynyl)-3-{(trans-4-methyl-cyclohexanecarbonyl)-[cis-3-(pyridin-3-yloxy)-cyclobutyl]-amino}-thiophene-2-carboxylic acid] showed an inhibition at 2 µM of 99.8%. The value for `CC(C)(C)C#Cc1cc(N(C(=O)[C@H]2CC[C@H](C)CC2)[C@H]2C[C@H](Oc3cccnc3)C2)c(C(=O)O)s1` [Compound 21, 5-(3,3-Dimethyl-but-1-ynyl)-3-[(trans-4-methyl-cyclohexanecarbonyl)-{trans-3-(pyridin-3-yloxy)-cyclobutyl]-amino}-thiophene-2-carboxylic acid] was 98.8%; that for `CC(C)(C)C#Cc1cc(N(C(=O)[C@H]2CC[C@H](C)CC2)[C@H]2C[C@@H](Oc3ncccn3)C2)c(C(=O)O)s1` [Compound 22, 5-(3,3-Dimethyl-but-1-ynyl)-3-{(trans-4-methyl-cyclohexanecarbonyl)-[cis-3-(pyrimidin-2-yloxy)-cyclobutyl]-amino}-thiophene-2-carboxylic acid] was 96.2%; that for `CC(C)(C)C#Cc1cc(N(C(=O)[C@H]2CC[C@H](C)CC2)[C@H]2C[C@H](Oc3ncccn3)C2)c(C(=O)O)s1` [Compound 23, 5-(3,3-Dimethyl-but-1-ynyl)-3-{(trans-4-methyl-cyclohexanecarbonyl)-[trans-3-(pyrimidin-2-yloxy)-cyclobutyl]-amino}-thiophene-2-carboxylic acid] was 99.5%. Take `CC1CCC(C(=O)N(c2cc(C#CC(C)(C)C)sc2C(=O)O)[C@H]2CC[C@H](Oc3ccnc4ccccc34)CC2)CC1` (stereo partly shown) [Compound 25, 5-(3,3-Dimethyl-but-1-ynyl)-3-{(4-methyl-cyclohexanecarbonyl)-[4-(quinolin-4-yloxy)-cyclohexyl]-amino}-thiophene-2-carboxylic acid]: the inhibition at 2 µM amounted to 99.3%. For the molecule `CCc1cc(O[C@H]2CC[C@H](N(C(=O)C3CCC(C)CC3)c3cc(C#CC(C)(C)C)sc3C(=O)O)CC2)cc(CC)n1` (stereo partly shown) [Compound 26, 3-[[4-(2,6-diethyl-pyridin-4-yloxy)-cyclohexyl]-(4-methyl-cyclohexanecarbonyl)-amino]-5-(3,3-Dimethyl-but-1-ynyl)-thiophene-2-carboxylic acid], at 2 µM the inhibition was 99.8%.

In turn, `CC(C)(C)C#Cc1cc(N(C(=O)[C@H]2CC[C@H](C)CC2)[C@H]2CC[C@H](Oc3cc(CN4CCCC4)ccn3)CC2)c(C(=O)O)s1` [Compound 27, 5-(3,3-Dimethyl-but-1-ynyl)-3-{(trans-4-methyl-cyclohexanecarbonyl)-[trans-4-(4-pyrrolidin-1-ylmethyl-pyridin-2-yloxy)-cyclohexyl]-amino}-thiophene-2-carboxylic acid] registered an inhibition at 2 µM of 100%.

Take `CC1CCC(C(=O)N(c2cc(C#CC(C)(C)C)sc2C(=O)O)[C@H]2CC[C@H](Oc3cc(CN4CCOCC4)ccn3)CC2)CC1` (stereo partly shown) [Compound 28, 5-(3,3-Dimethyl-but-1-ynyl)-3-{(4-methyl-cyclohexanecarbonyl)-[4-(4-morpholin-4-ylmethyl-pyridin-2-yloxy)-cyclohexyl]-amino}-thiophene-2-carboxylic acid]: the inhibition at 2 µM is 99.7%.

In turn, `CC1CCC(C(=O)N(c2cc(C#CC(C)(C)C)sc2C(=O)O)[C@H]2CC[C@H](Oc3cc(CN(C)C)ccn3)CC2)CC1` (stereo partly shown) [Compound 29, 3-[[-4-(4-dimethylaminomethyl-pyridin-2-yloxy)-cyclohexyl]-(4-methyl-cyclohexanecarbonyl)-amino]-5-(3,3-Dimethyl-but-1-ynyl)-thiophene-2-carboxylic acid] returned an inhibition at 2 µM of 100%. `CC1CCC(C(=O)N(c2ccc(Oc3ccccn3)cc2)c2cc(C#CC(C)(C)C)sc2C(=O)O)CC1` (stereo not shown) [Compound 30, 5-(3,3-Dimethyl-but-1-ynyl)-3-{(4-methyl-cyclohexanecarbonyl)-[4-(pyridin-2-yloxy)-phenyl]-amino}-thiophene-2-carboxylic acid] returned an inhibition at 2 µM of 70.7%. With `C[C@@H](CCOc1cccnc1)N(c1cc(C#CC(C)(C)C)sc1C(=O)O)C(=O)[C@H]1CC[C@H](C)CC1` [Compound 58], the inhibition at 2 µM was 99.9%.

These data come from patent publication US8569302B2, “Inhibitors of flaviviridae viruses” (Gilead Sciences, Inc., priority 2009, dated 2013).
